Data from patent US8492159B2, “Methods and compositions for treating conditions” (priority 2004, dated 2013).

Key:
[1] = test system: Pseudomonas syringae pv tomato, DC3000; assay: Systemic resistance of plants to a virulent bacterial pathogen; type: in vivo, Arabidopsis ecotype Columbia (Col-0); conditions: 20 μl salicylic acid at 1 mM and 20 μl SEQ ID NO: 15 applied together to the leaves
Experimental: Seeds of Arabidopsis ecotype Columbia (Col-0) were planted in potting soil. Plants were cultivated in a growth chamber with 10-h d (200 μmol m^−2 s^−1 at 22° C.) and 14-h night (18° C.) cycles and 80% RH. Once a week plants were supplied with water and modified one-half strength Hoagland nutrient solution: 2 mM KNO 5 mM Ca(NO3)2 and trace elements, pH 7.
A virulent plant pathogen, Pst Pseudomonas syringae pv tomato, DC3000 was grown at 28° C. on King's medium B containing 40 mg/L tetracycline. Plants were inoculated with 1×10^7 cfu/ml of the pathogen in 0.01% Silwet L77 (v/v) (a surfactant) and distilled water 5 weeks after sowing. The bacterial suspension or a control solution (0.01% Silwet L77 in water) was then sprayed on the plant once.
Disease symptoms in Arabidopsis are water-soaked, spreading lesions, sometimes surrounded by chlorotic margin that eventually lead to yield loss and plant death.
To test the efficacy of SEQ ID NO: 15, some healthy and some disease plants were sprayed with salicylic acid in 0.01%. Silwet L77; some healthy and some disease plants were sprayed with SEQ ID NO: 15 in 0.01%. Silwet L77, and some healthy and some disease plants were sprayed with salicylic acid in combination with SEQ ID NO: 15 in 0.01%. Silwet L77. A control group of some healthy and some disease plants were sprayed with water in 0.01%. Silwet L77. […]

[2] = test system: Sauromatum guttatum appendix; assay: Modulation of heat generated by aspirin (ASA) in appendix sections; conditions: appendix sections in aqueous ASA with or without peptide
Experimental: (§1) In one example, using Sauromatum guttatum as the experimental module, on the day of inflorescence-opening, the Sauromatum appendix (a 20-40 cm-long, slender organ) becomes warm, reaching a 32° C. temperature (Skubatz et al., 1991, Plant Physiol. 95:1084-1088). The heat generated by the appendix is generated by the mitochondria. This mitochondrial activity can be triggered by the addition of phenolic compounds, including but not limited to, salicylic acid, aspirin, and 2,6-dihydroxybenzoic acid. Test agents can be applied to the plant and the plant's temperature may be monitored in vivo.
One day before heat-production, sections of the appendix were placed in different aqueous solutions containing ASA with or without an opioid peptide. [Leu]-Enkephalin, SEQ ID NO: 15; Human β-Endorphin; SEQ ID NO: 19; Dynorphin A, SEQ ID NO: 21; Endomorphin 2, SEQ ID NO: 24; Neuropeptide AF, SEQ ID NO: 44; β-human-Casomorphin, SEQ ID NO: 47; Alzheimer's peptide, SEQ ID NO: 48. […] Temperature was recorded with thermocouples attached to the section every 5 min.

[3] = test system: Sauromatum guttatum appendix; assay: Modulation of heat generated by salicylic acid (SA) in appendix sections; conditions: appendix sections in aqueous SA with or without peptide
Experimental: as §1
FIG. 5 illustrates modulation of heat generated by salicylic acid (SA) in the presence of human opioid peptides (β-Endorphin, SEQ ID NO: 19 and Nueuropeptide AF, SEQ ID NO: 44) and, the Alzheimer's peptide, Aβ 1-42, SEQ ID NO: 49, and, a plant virulent bacterial pathogen (Pst DC3000). One day before heat-production, sections of the appendix were placed in different aqueous solutions containing salicylic acid (SA) with or without a peptide or with the bacterial plant pathogen, Pseudomonas syringae pv. Tomato, DC3000. Sections from the appendix were placed in distilled water that was not generated any heat is the control (water). Temperature was recorded with thermocouples attached to the sections every 5 min.

[4] = test system: post-operative pain in rats; assay: Von Frey testing for mechanical allodynia, post-operative pain (Brennan model), first study; type: in vivo, rat
Text: A total of forty (40) male Sprague Dawley rats (Harlan Sprague Dawley Inc., Indianapolis, Ind., USA) were used in the study. The rats are specific pathogen free and approximately 250 grams upon arrival. The rats were housed in the vivarium in clear polycarbonate plastic cages (48×27×20 cm); 2 rats per cage until a few days prior to surgery at which point they were singularly housed for the remainder of the study procedures. The bedding material is irradiated corn-cob bedding (Bed-O-Cob, The Andersons, Maumee, Ohio, USA) that was changed weekly. The rats were acclimated for two weeks prior to the commencement of the experimental procedures. The room in which the rats were housed throughout the study was supplied with HEPA filtered air at the rate of 10-15 air changes per hour. The temperature was maintained at 18-26° C. with a relative humidity of 30-70%. Illumination is approximately 300 lumens/m^2 at 1 m above floor level on a 12-hour light/dark cycle. […]
On days 1 and 3 post-surgery, the rats underwent Von Frey testing for mechanical allodynia. Tactile sensitivity (i.e. mechanical allodynia) was measured using calibrated filaments touched to the plantar surface of the affected limb. […]
FIG. 1. Data were analyzed using a one-way ANOVA followed by Newman-Keuls' Multiple Comparison. […]

[5] = test system: post-operative pain in rats; assay: Hind paw withdrawal threshold (von Frey filaments) after surgery, second study; type: in vivo, rat
Experimental: In a second independent study the rat hind paw withdrawal sensitivity was again evaluated after 3 h and 3 day post-surgery when the rats had received SEQ ID NO: 1 at three different concentrations: 1, 15 and 50 mg/kg. The dosing route was subdermal injection adjacent to the wound site. The rats received one dose 3 hours after the surgery and on Day 3 post-surgery, group 3 was dosed again as described in the Table IV. Pain measurements were taken 15-20 min after application of the drug. Baseline pain behavior was measured as follows: Withdrawal responses to mechanical stimulation were determined using von Frey filaments applied from underneath the cage through openings (12×12 mm in the plastic mesh floor to an area adjacent to the intended incision. Each von Frey filament (Target force of 0.008 g to 300 g) was applied once starting with 0.008 g filament and continuing until a withdrawal response occurred or 300 g force was reached. The median force producing a response, determined from three tests given over a 10-min period was considered the withdrawal threshold.
In the saline treated animals, the control, 3-hour post-surgery were 25.1, 4.4 and 12.7 g, indicating significant hyperalgesic response immediately after surgery which subsided by Day-3. […] The withdrawal response in the 50 mg/kg SEQ ID NO: 1 administered on Day-1 was 9.9 g compared to the 4.4 g for the saline group at the same time-point, indicating a 125% effect. The data expressed as mean±SE, were analyzed using ANOVA followed by Tukey-HSD Multiple Comparison Test. Statistical significance was p<0.05.
On Day-3, when these animals were administered with […] of SEQ ID NO: 1 subdermally, the withdrawal response was at 21.3 g, compared to the withdrawal response of saline group at 12.7 g, constituting an increase of 68%. The data expressed as mean±SE, were analyzed using ANOVA followed by Tukey-HSD Multiple Comparison Test. Statistical significance was p<0.05.

chronic pain = assay: Topical administration to an adult subject with chronic pain, scaled score 1 to 10; type: in vivo, human
Experimental: An adult subject suffering from chronic pain as a result from of multiple fractures to both tibia and fibula in both legs and severe traumatic soft tissue damage was topically administered a composition containing a polypeptide of SEQ ID NO: 1 at regions experiencing pain (mostly knees and ankles). The pharmaceutical formulation administered comprised of 5 μM of SEQ ID NO: 1 in 0.01% Silwet L-77. Relief was noticed within 15 min. after administration of a single dose of about 5 μg/10 cm2 of SEQ ID NO: 1. […] A scaled score of 1 to 10 was used to evaluate treatment efficacy where a score of 10 represented a patient with sever pain discomfort and complete inability to walk. A scaled score of 1 represented a patient experiencing no pain and able to freely walk or move the legs. Prior to treatment, the patient scored an 8-9 representing chronic pain and difficulties in walking long distance. After the treatment, the patient scored a 2-3 representing a significant decrease in pain. Treatment efficacy lasted for about 10 days.

[6] = test system: Arabidopsis thaliana plants; assay: Flowering of treated plants; type: in vivo; conditions: 10 μm in 0.01% Silwet L-77
[7] = test system: Sauromatum guttatum appendix; assay: Modulation of heat generated by 2,6-dihydroxybenzoic acid (2,6-DHBA) in appendix sections; peptide alone in a second experiment
Experimental: as §1
FIG. 6 illustrates modulation of heat generated by 2,6-dihydroxybenzoic acid in the presence of the Alzheimer's peptide, A.β.1-42, SEQ ID NO: 49 and a plant gene derived sequence in the Sauromatum guttatum appendix. One day before heat-production, sections of the appendix were placed in different solutions containing 2,6-dihydroxybenzoic acid (2,6-DHBA) with or without SEQ ID NO: 2 (FLPSEFGVDVDR) and SEQ ID NO: 49. Heat-production was monitored with thermocouples attached to the sections. A section placed in distilled water that was not generated any heat is the control (water). […] The temperature was recorded every 5 min.

O=C(O)c1ccccc1O [salicylic acid]
systemic resistance to the virulent bacteria [1]: enough to trigger systemic resistance

YPFF [SEQ ID NO: 24]
modulation of heat generated by aspirin (ASA) (FIG. 4) [2]: can modulate thermogenicity in plants

AGEGLNSQFWSLAAPQRF [SEQ ID NO: 44]
modulation of heat generated by aspirin (ASA) (FIG. 4) [2]: can modulate thermogenicity in plants
modulation of heat generated by salicylic acid (SA) (FIG. 5) [3]: modulate thermogenicity in plants

FLPS (Description of Unknown: Arabidopsis thaliana or Homo sapiens) [SEQ ID NO: 1]
pain (mechanical allodynia, paw withdrawal threshold, FIG. 1) ([4]; rats 3 days after surgery, 150 μg topical or subdermal, p<0.05): significantly reduce pain
appearance of the rats ([4]; rats after surgery, treated): relaxed and with less anxiety
increase in the pain threshold ([5]; 1 mg/kg on day 1, 3-hour post surgery measurements): 39%
effect compared to the saline group at the same time-point ([5]; 50 mg/kg subdermal, Day-1, 3 h after surgery): 125%
withdrawal response ([5]; 50 mg/kg subdermal, Day-1, 3 h after surgery, saline group 4.4 g): 9.9 g
increase in response time compared to the saline group ([5]; Day 3, group which did not receive any further dosing): 31%
increase of withdrawal response compared to saline group ([5]; Day-3, 15.25 mg/kg subdermally): 68%
withdrawal response ([5]; Day-3, 15.25 mg/kg subdermally (animals given 1 mg/kg on day 1), saline group 12.7 g): 21.3 g
scaled pain score after the treatment (chronic pain; scale 1 (no pain) to 10 (severe pain), prior to treatment 8-9): 2-3
duration of treatment efficacy (chronic pain; topical, single dose): about 10 days
duration of relief (chronic pain; topical, single dose of about 5 μg/10 cm2): more than a week
time until relief was noticed (chronic pain; topical, single dose of about 5 μg/10 cm2, 5 μM in 0.01% Silwet L-77): ≤ 15 min
flowering [6]: induces early flowering and abundance of flowers and pods

FLPSEFGVDVDR [SEQ ID NO: 2]
modulation of heat generated by 2,6-dihydroxybenzoic acid (FIG. 6) ([7]; appendix sections in 2,6-DHBA with or without peptide): modulate thermogenicity in plants
heat generation by the peptide ([7]; second experiment, up to 50 μM, data not shown): did not generate heat

YPFVEPIP [SEQ ID NO: 47]
modulation of heat generated by aspirin (ASA) (FIG. 4) [2]: can modulate thermogenicity in plants

YGGFMTSEKSQTPLVTLFKNAIIKNAYKKGE [SEQ ID NO: 19]
modulation of heat generated by aspirin (ASA) (FIG. 4) [2]: can modulate thermogenicity in plants
modulation of heat generated by salicylic acid (SA) (FIG. 5) [3]: modulate thermogenicity in plants

YGGFL [SEQ ID NO: 15]
modulation of heat generated by aspirin (ASA) (FIG. 4) [2]: can modulate thermogenicity in plants
systemic resistance to the virulent bacteria [1]: enough to trigger systemic resistance

YGGFLRRIRPKLKWDNQ [SEQ ID NO: 21]
modulation of heat generated by aspirin (ASA) (FIG. 4) [2]: can modulate thermogenicity in plants
